# Reference: patent US5360613A, “Method of reducing blood levels of total cholesterol and low-density lipoprotein cholesterol” (Iowa State University Research Foundation, Inc., priority 1993, dated 1994)
# Experiments:
# [1] = tested on: aorta; test: Pig feeding study, aorta streaking (pre-atherosclerotic lesions) (Example III, Table C); format: in vivo, pigs; conditions: dietary .05%; 0 least severe to 3.2 most severe; control 1.87; HMB p .06, KIC ns
# Method: (§1) A further large mammal study was carried out with pigs. Pigs comprise test animals which are more similar in certain respects to humans than ruminants.
# (§2) Control: 60 g. of calcium
# (§3) The pigs were housed in pens of two animals each and were allowed ad libitum access to food and water. Pigs were approximately 160 lbs. at the start of the experiment and were 240 lbs. at the end. All pigs were castrate males. At day 28 and day 43 of the experiment blood was collected from the anterior vena cava by venipuncture. Blood was collected into EDTA containing tubes, centrifuged and frozen until analyzed. At approximately 100 days of the experiment half of the animals (32) were slaughtered, and at 120 days the remaining 32 animals were slaughtered. At the time of slaughter the abdominal aorta was dissected out and external fat removed. The aorta was then split lengthwise and 1/2 fixed in formaldehyde for 48 hours. At this time aortas were removed, stretched over a 6 inch stick, washed in ethanol and stained with a lipid stain for 2 hours. After a 1 hour wash aortas were blotted and examined. All the aortas from a group were laid out on a white bench and arranged in order from least sever to most sever. The least sever had no dark red streaks on the aorta or around the small vertebral vessels leaving the aorta. The most sever lesions had multiple streaks in the middle of the aorta and dark red deposits in turbulent areas such as the branching of vessels from the aorta. The ordered aortas were then assigned a consecutive decimal number. The first (least severe) was assigned 0 and the most severe was assigned 3.2 Plasma cholesterol and triglycerides were measured by an enzyme-colorimetric assay (Sigma).
# (§4) statistical analysis was accomplished by the general linear model procedure of the Statistical Analysis System (SAS). The model included the main effects of treatment and pen number. T-tests were conducted from the ANOVA standard error, to compare the HMB treatments to the control. […] It appeared that HMB can partially prevent the formation of pre-atherosclerotic lesions. No effect of KIC was noted relative to any parameter.
# [2] = tested on: plasma cholesterol and triglycerides; test: Pig feeding study, plasma cholesterol and triglycerides (Example III, Table C); format: in vivo, pigs
# Method: as §1, §2, §3, §4
# [3] = tested on: blood cholesterol; test: Human dose-response study, blood cholesterol, triglycerides and glucose (Example V, Table E); format: in vivo, humans; conditions: for % Change After 8 Days, Cholesterol: linear effect p .21; for % Change After 8 Days, LDL: linear effect p .26; for % Change After 8 Days, Triglycerides: linear effect p .50; for % Change After 8 Days, HDL: linear effect p .85; for % Change After 8 Days, Glucose: linear effect p .99
# Method: (§5) Higher dose levels than in Example IV of Ca-HMB were tested in humans. The objective was to obtain an indication of whether higher doses could be safely administered, and also whether higher doses might provide a greater reduction in total cholesterol and LDL cholesterol.
# (§6) Normal humans were used in the study. Ca-HMB was administered in 250 mg capsules, and the subjects were instructed to take the capsules in 4 equal doses daily. No control of diet was attempted except they were instructed to eat as they normally would. On alternate days the subjects had blood drawn before the morning meal and before they took the morning HMB dose. Four subjects were studied for dose level of 05., 1, 2 and 4 grams per day.
# (§7) Results from all samples of each subject were subjected to linear regression and the slope and intercept used to calculate the % change in concentration after 8 days on treatment. The percentage changes were then subjected to ANOVA-regression to determine if there was a linear effect of dosage on the parameter. The dose-response effect (p<) is listed in the linear effect column of Table E.
# [4] = Human dose-response study, body weight and body fat (Example V, Table E); format: in vivo, humans; conditions: for % Change After 8 Days, Body fat (%): linear effect NS; for % Change After 8 Days, Weight: linear effect p .32
# Method: as §5, §6, §7
# [5] = Hygroscopicity of HMB salts; format: physicochemical; conditions: compared with sodium or potassium salts
smiles,measurement,setting,value
"CC(C)CC(=O)C(=O)O [KIC, ketoisocaproic acid, reference compound]",Aorta Streaking,[1],1.48
same,effect relative to any parameter,"[2]; 0.05% KIC in diet, aorta streaking, plasma cholesterol, triglycerides",No effect
same,Plasma Triglycerides,"[2]; dietary .05%, control 107, ns",106 mg %
same,Plasma Cholesterol,"[2]; dietary .05%, control 135, HMB p .05, KIC ns",139 mg %
CC(C)(O)CC(=O)O [Ca-HMB],"% Change After 8 Days, Cholesterol",[3]; 0.5 g daily,6%
same,"% Change After 8 Days, LDL",[3]; 0.5 g daily,2%
same,"% Change After 8 Days, Triglycerides",[3]; 0.5 g daily,26%
same,"% Change After 8 Days, HDL",[3]; 0.5 g daily,0%
same,"% Change After 8 Days, Glucose",[3]; 0.5 g daily,-7%
same,"% Change After 8 Days, Cholesterol",[3]; 1.0 g daily,1%
same,"% Change After 8 Days, LDL",[3]; 1.0 g daily,0%
same,"% Change After 8 Days, Triglycerides",[3]; 1.0 g daily,-16%
same,"% Change After 8 Days, HDL",[3]; 1.0 g daily,6%
same,"% Change After 8 Days, Glucose",[3]; 1.0 g daily,2%
same,"% Change After 8 Days, Cholesterol",[3]; 2 g daily,-2%
same,"% Change After 8 Days, LDL",[3]; 2 g daily,-3%
same,"% Change After 8 Days, Triglycerides",[3]; 2 g daily,-8%
same,"% Change After 8 Days, HDL",[3]; 2 g daily,1%
same,"% Change After 8 Days, Glucose",[3]; 2 g daily,-5%
same,"% Change After 8 Days, Cholesterol",[3]; 4 g daily,-4%
same,"% Change After 8 Days, LDL",[3]; 4 g daily,-6%
same,"% Change After 8 Days, Triglycerides",[3]; 4 g daily,36%
same,"% Change After 8 Days, HDL",[3]; 4 g daily,0%
same,"% Change After 8 Days, Glucose",[3]; 4 g daily,-4%
same,"% Change After 8 Days, Body fat (%)",[4]; 0.5 g daily,5%
same,"% Change After 8 Days, Weight",[4]; 0.5 g daily,1.7%
same,"% Change After 8 Days, Body fat (%)",[4]; 1.0 g daily,-18%
same,"% Change After 8 Days, Weight",[4]; 1.0 g daily,-.3%
same,"% Change After 8 Days, Body fat (%)",[4]; 2 g daily,-15%
same,"% Change After 8 Days, Weight",[4]; 2 g daily,.5%
same,"% Change After 8 Days, Body fat (%)",[4]; 4 g daily,-1%
same,"% Change After 8 Days, Weight",[4]; 4 g daily,.2%
same,hygroscopicity,[5],less hydroscopic than the sodium or potassium salts
